Three molecules from PMC5947527 (Chemical Science, 2015) can be followed below.

In one series the test system is P. aeruginosa. The series can be described thus: Live confocal imaging of bacteria, signal to noise of FAM vs NBD label. To be noted: confocal microscopy, 10 μM. The format is cell-based. From the text:
UBI29–41 was firstly conjugated to carboxyfluorescein (UBI-1) and used to image bacteria with analysis via confocal microscopy. This yielded insufficient signal to noise to distinguish bacteria from background fluorescence (Fig. 1). We therefore took advantage of the environmental reporting properties of the fluorophore 7-nitrobenz-2-oxa-1,3-diazole (NBD)[12] and hypothesized there would be fluorescence amplification of NBD in the apolar hydrophobic bacterial membrane.
Fig. 1 NBD–UBI enables live confocal imaging of bacteria. […]
(§1) Confocal Analysis and Fluorescence Quantification: 8-Well Lab-Tek II Confocal Chambers (VWR, PA, USA) were coated in fibronectin (for neutrophil experiments) or poly-d-lysine (for bacteria) at 37 °C for 20 minutes, then washed in PBS prior to bacterial innoculation. […] Exposure to 488 nm light was limited to 5% of the maximum laser power in order to minimize toxicity. ‘Green’ fluorescence (for FAM and NBD) was excited with a dedicated 488 nm line and emitted light detected with meta detector (500-530 nM).
(§2) Syto nuclear and dyes were excited with a dedicated 543 nm line, and emitted light detected with meta detector (570-610 nM). Fields of view were chosen based on the counterstain and at least three fields of view were recorded for each condition. […]
mean fluorescence intensity on the probe channel within this ROI was quantified. […]

For series [1], the system named is methicillin-sensitive Staphylococcus aureus (MSSA), Pseudomonas aeruginosa and Klebsiella pneumoniae. The experiment in a line: Confocal bacterial labelling, UBI-2 vs UBI-3 on a panel of bacteria. It is filed as cell-based. The note with it: fluorescence normalised to UBI-2, mean ± SEM, n ≥ 3. The method, then: Fig. 3 UBI-3 retains specificity and sensitivity for bacterial labelling. […] Panels show bacteria labelled with either UBI-2 or UBI-3 with quantification of fluorescence (values normalised to UBI-2) (Bars represent mean, error bars represent standard error of mean, n ≥ 3, ns = not significant, scale bar = 10 μm). (B) Quantification from confocal images of UBI-3 (10 μM) imaging a panel of bacteria (statistical analyses shown compared to unlabelled bacteria, n ≥ 3 for each bacteria, *** = p < 0.001). […] [MRSA: methicillin-resistant Staphylococcus aureus, MSSA: methicillin-sensitive Staphylococcus aureus]. […]
as §1, §2

Series [2] is described as follows: Chemical stability on storage in phosphate buffered saline at 37 °C (HPLC). It is filed as physicochemical. To be noted: 1 mg mL–1 in PBS, day 0 vs day 3, HPLC, detection at 380 nm. The method, then: This modification is particularly of relevance due to the expected in vivo inflammatory oxidative environment within an infected pneumonic lung due to infiltrating host inflammatory cells such as neutrophils,[13] and therefore all subsequent modifications incorporated Nle in place of Met.
HPLC chromatograms (gradient acetonitrile + 0.1% formic acid/water + 0.1% formic acid from 5/95 to 95/5 over 10 min, then isocratic for 4 min; detection at 380 nm). UBI-2 (1 mg mL^–1 in PBS, upper panels) and UBI-3 (1 mg mL^–1 in PBS, lower panels) at (A) day 0 and (B) day 3 after incubation at 37 °C.

Series [3] has as its system methicillin-sensitive Staphylococcus aureus. The experiment in a line: Confocal labelling of MSSA with quantified fluorescence. The note with it: for concentration dependence of bacterial labelling: 0.5 μM to 50 μM, methicillin sensitive S. aureus; for bacterial labelling (fluorescence compared with UBI-3): MSSA, 10 μM, fluorescence normalized to UBI-3, mean ± SEM, n ≥ 3. It is filed as cell-based. The method, then: Fig. 6 Confocal Images of compounds UBI-3 to 9 with quantified fluorescence. Panels show methicillin-sensitive Staphylococcus aureus incubated with UBI-3 to 9 (all 10 μM) with quantification of bacterial fluorescence normalized to UBI-3 (bars represent mean (±SEM), n ≥ 3, ns = not significant, *** = p < 0.001, * = p < 0.05, scale bar = 10 μm).
Fig. 8 Confocal images and quantification of cyclic variants when compared to UBI-3. Panels show methicillin-sensitive Staphylococcus aureus incubated with cyclic UBI compounds (all 10 μM) with quantification of bacterial fluorescence normalized to UBI-3 (bars represent mean (±SEM), n ≥ 3, ns = not significant, ** = p < 0.01, scale bar = 10 μm).
Bacterial Culture and Labelling: Bacteria used were K. pneumoniae (ATCC BAA1706) ATCC, E. coli (ATCC 25922) ATCC, A. baumannii (J3433) Clinical Isolate, P. aeruginosa (J3284) Clinical Isolate, Methicillin Resistant S. aureus (MRSA) (ATCC25923) ATCC and Methicillin Sensitive S. aureus (MSSA) (ATCC 252) ATCC. All bacteria were grown on Lysogeny broth (LB) agar and from a single bacterial colony placed into 10ml of LB and incubated at 37°C for 16 hours in an orbital shaker.
Cultures were centrifuged at 4000rpm for 5 minutes and the pellet resuspended in 1ml phosphate buffered saline (PBS, Life Technologies). Following three further washes in PBS the cultures were reconstituted to 1 OD595 nm. Bacteria were counterstained with 5µM Syto 82 orange fluorescent nucleic acid stain (Invitrogen, CA, USA) in a shaking heat block at 37 °C for 20 minutes. For FCFM bacteria were stained with 1µM Calcein AM (Sigma, MO, USA) for 30 minutes at 37 °C. Counterstained bacteria were washed in PBS to remove excess dye. […]
(§3) Confocal Analysis and Fluorescence Quantification: 8-Well Lab-Tek II Confocal Chambers (VWR, PA, USA) were coated in fibronectin (for neutrophil experiments) or poly-d-lysine (for bacteria) at 37 °C for 20 minutes, then washed in PBS prior to bacterial innoculation. For co-culture assays, neutrophils were seeded on fibronectin coated wells at 1 x 10^5 neutrophils per well for 20 minutes and non-adherent neutrophils aspirated. Bacteria were added to each chamber to a final concentration of 0.5 OD595 nm with the desired final concentration of Smartprobe. A laser-scanning confocal imaging system (LSM510; Carl Zeiss, Jena, Germany), incorporating an upright Axioskop FS2 microscope (63× objective) was used for image acquisition and processing. Exposure to 488 nm light was limited to 5% of the maximum laser power in order to minimize toxicity. ‘Green’ fluorescence (for FAM and NBD) was excited with a dedicated 488 nm line and emitted light detected with meta detector (500-530 nM).
(§4) Syto nuclear and dyes were excited with a dedicated 543 nm line, and emitted light detected with meta detector (570-610 nM). Fields of view were chosen based on the counterstain and at least three fields of view were recorded for each condition. For affinity assays, following initial imaging, the fluid was aspirated and two gentle washes with PBS were performed. The chamber was re-imaged on confocal.
(§5) Analysis was with ImageJ (version 1.46r, National Institutes of Health, USA); the Syto channel was automatically thresholded (MaxEntropy, with a set threshold 0-47) and an ROI generated from this. The […]
(§6) mean fluorescence intensity on the probe channel within this ROI was quantified. Data presented represents the mean of three experiments, from each of which three separate fields of view were assessed. All experiments were performed at least three times unless otherwise stated and results expressed as mean ± SEM. Data was analysed by unpaired t-test and significance was determined as p<0.05 (GraphPad Prism version 5.01 for Windows, GraphPad Software, San Diego California USA).
Ex vivo Human Lung and FCFM Procedure: Human lung samples were obtained from patients undergoing surgical resection for lung carcinoma. All images were obtained on sections of normal lung […]

For series [4], the system named is Methicillin sensitive S. aureus, K. pneumoniae and P. aeruginosa. The series can be described thus: Bacterial affinity: fluorescence retention following a PBS wash (confocal). To be noted: for bacterial affinity (Table 1, effect on efficacy): Table 1 summary. The format is cell-based. The method, then: Three compounds (UBI-3, UBI-5 and UBI-10) were assessed for further evaluation. […] In vitro affinity of bacterial binding was assessed by incorporating a wash step in the live confocal imaging protocol with a panel of bacteria with the ‘wash-off’ representing a surrogate indicator of Smartprobe-bacterial labelling affinity. […] UBI-10, therefore, was assessed further in a clinically relevant biological system.
Figure S4. Quantified fluorescence of confocal microscopy images of the compounds UBI-3, UBI-5 and UBI-10 on three bacteria and fluorescence retention following a PBS wash. Quantification of fluorescence intensity of (A) Methicillin sensitive S. aureus, (B) K. pneumoniae and (C) and P. […]
intensity following a PBS wash. […]
as §3, §4, §5, §6
Ex vivo Human Lung and FCFM Procedure: Human lung samples were obtained from patients undergoing surgical resection for lung carcinoma. All images were obtained on sections of normal lung away from the cancerous growth. Informed consent was obtained and the study was approved by the Regional Ethics Committee. Samples were taken fresh from the operating theatre, dissected into 4mm sections and placed in wells of 96 well plate. Bacteria were pre-labelled with Smartprobe or Calcein AM and co-cultured in the well with a maximum volume of 100µl. […]

Entries after “also recorded” stand apart in the source; their conditions may differ. Residues, ends and D or L forms follow the SMILES beside them. *: point of attachment. NBD = O=[N+]([O-])c1ccc(*)c2nonc12; Ahx = NCCCCCC(=O)O

As to `CSCC[C@H](NC(=O)[C@H](CCCNC(=N)N)NC(=O)[C@H](CCCNC(=N)N)NC(=O)[C@H](CCCCN)NC(=O)[C@H](C)NC(=O)[C@H](CCCNC(=N)N)NC(=O)CNC(=O)[C@@H](NC(=O)CCCCCNc1ccc([N+](=O)[O-])c2nonc12)[C@@H](C)O)C(=O)N[C@@H](CCC(N)=O)C(=O)N[C@@H](Cc1ccc(O)cc1)C(=O)N[C@@H](CC(N)=O)C(=O)N[C@@H](CCCNC(=N)N)C(=O)N[C@@H](CCCNC(=N)N)C(N)=O` [UBI-2] ({NBD-Ahx}-TGRAKRRMQYNRR-NH2), the “signal to noise for bacterial labelling” value in the series with P. aeruginosa is listed as “good signal to noise; also recorded: higher signal to noise for bacterial labelling over UBI-1”. The “bacterial labelling, Met vs Nle variant” value in series [1] is recorded as “same fluorescence intensity”. Further, the “chemical stability in PBS at 37 °C” value in series [2] is “underwent chemical degradation; also recorded: Unstable at 37 °C in PBS”.

With “NBD-Ahx-Thr-Gly-Arg-Ala-Lys-Arg-MeArg-Nle-Gln-Tyr-Asn-Arg-Arg-D-Phe-D-Val-NH2 [UBI-5, NBD-UBI with D-amino acids (D-Val and D-Phe) incorporated at the C-terminus]”, in series [3], the “concentration dependence of bacterial labelling” value was “concentration dependent manner” and the “bacterial labelling (fluorescence compared with UBI-3)” value is recorded as “same intensity as UBI-3”. Also, in series [4] (10 µM, two gentle PBS washes, three bacterial species, n=3), the “fluorescence following labelling and a PBS wash” value is “significantly lower fluorescence”. The “bacterial affinity (Table 1, effect on efficacy)” value in series [4] is on record as “poor bacterial affinity”.

With “NBD-Ahx-Thr-Gly-Arg-Ala-Lys-MeArg-MeArg-Nle-Gln-Tyr-Asn-MeArg-MeArg-NH2 [UBI-4, NBD-UBI with N-Methylarginine (MeArg) insertion based on MALDI-TOF analysis of cleavage peptides]”, in series [3], the “concentration dependence of bacterial labelling” value is listed as “concentration dependent increase in bacterial fluorescence” and the “bacterial labelling (fluorescence compared with UBI-3)” value is recorded as “same intensity as UBI-3”. In addition, the “bacterial affinity (Table 1, effect on efficacy)” value in series [4] was “poor bacterial affinity”.
